Measurements taken from patent US4704277A, “Methods of treating bone disorders” (Sloan-Kettering Institute for Cancer Research, priority 1985, dated 1987).

Columns and labels:
bone = conditions: cited from earlier work
[1] = patients treated in clinical testing; cited from earlier work
[2] = continuous infusion; Warrell 1983, Leyland-Jones 1983; cited from earlier work
[3] = test system: long bones (metaphyses and diaphyses); assay: Bone Ga, Ca, P content and ash weight of bone fragments from gallium-treated rats; type: in vivo, Sprague-Dawley rats; conditions: for bone calcium content vs nontreated: 7 injections of 5 mg over 14 days; for Ga content of bone: gallium treated rats, n=6, 20160 min
Description: (§1) Young female (120 g) Sprague-Dawley rats received a course of injections with 0.5 or 5.0 mg gallium nitrate, every other day. The 0.5 mg concentration is approximately equivalent (on a weight/weight basis) to the dose used to treat patients with cancer-related hypercalcemia by Warrell, et. al., supra. The animals received 7 interperitoneal injections over a 9-14 day period. Control groups were injected with carrier only. […] To obtain bone samples the rats were anesthetized and then sacrificed. The long bones were removed and cleaned of all muscle and connective tissue. The metaphyseal (ends containing the growth plate) and diaphyseal (shaft) portions of the bones were separated using a dissecting microscope. The bone pieces were then split and cleaned of all visible marrow, frozen and lyophilized. The split, dried, marrow-free bone fragments were pulverized in a liquid nitrogen cooled colloid mill to produce bone powder. Aliquots of bone particles were used for: (a) ash weight determination, (b) measurement of Ga, Ca and P content and (c) X-ray diffraction analysis. A portion of one bone particle preparation was sieved to uniform size using an #325 stainless steel mesh. Approximately 50 mg of the sieved-particle bone was then dispersed in bromoform:toluene, density=2.0 g/cc (as measured with a pynconometer). The suspension was centrifuged in the cold at 100 x G for 15 minutes. The suspended particles, representing newly formed mineral bone, density <2.0 g/cc were removed, washed with acetone then dried. The pelleted particles, density >2.0 g/cc were similarly washed with acetone and dried. Both the light and heavy density fractions were analyzed for Ga and Ca content.
Gallium content in bone was measured by flameless atomic absorption spectrophotometry. Inorganic phosphorus was measured spectrophotometrically.
In subsequent experiments, rats were given 7 injections with 5 mg gallium nitrate over 14 days. […] As expected, increased calcium content was measured in the heavier density fraction >2.0 g/cc (220±31 vs 132±42 ug Ca/mg bone) which contained the more mineralized and more mature hydroxyapatite crystalline material.

bone hydroxyapatite = assay: Wide angle X-ray diffraction of powdered bone (hydroxyapatite crystal size/perfection, B002); type: in vivo, Sprague-Dawley rats; conditions: for BOO2 (002 line width at half maximum): gallium treated rats, n=11
Description: as §1
Aliquots of the powdered bone were subjected to wide angle x-ray diffraction using Cu K(alpha) radiation. Samples were rapidly scanned from 4° 2.phi. to 70° 2.phi. to detect the presence of phases other than hydroxyapatite. Triplicate slow scans from 24° to 28° 2.phi. were used to estimate hydroxyapatite crystal size and perfection based on the line-width measurements (B002) made at the half maximum point of the c-axis 002 reflection at 25.8° 2.phi.. […] As a consequence, crystals formed in the metaphyses of the treated animals were similar to those found in the more mature diaphyses.

bone cell models = assay: Cytotoxicity in bone cell models; type: cell-based
Description: (§2) Cytotoxicity studies were undertaken to determine if gallium nitrate was cytotoxic to bone tissue. […] At this dose and time, a 20% decrease in ^3 H-thymidine incorporation into DNA was seen.

bone turnover = assay: Bone turnover in patients with bone metastases on short term gallium nitrate infusion; type: in vivo, human (patients with bone metastases)
Description: (§3) These additional experiments were performed to permit evaluation of bone turnover in patients with bone metastases, in response to short term infusion of gallium nitrate.
Seventeen infusions were administered to fifteen patients, five of whom were hypercalcemic. Gallium nitrate was administered as a continuous infusion at daily doses ranging from […], over 5-7 days. Bone turnover was assessed by serial measurements of urinary levels of Ca^2+, hydroxyproline (OHP), and creatinine (Cr), as well as the serum levels of osteocalcin (BGP). […] Mean reduction was 70±18%. Eight patients with increased bone turnover (i.e., a urinary OHP/Cr ratio greater than 6.0), received eleven drug infusions. […] Mean reduction was 49±22%.

[4] = Body weight in gallium nitrate injected rats (lack of toxicity); type: in vivo, Sprague-Dawley rats; conditions: 0.5 or 5.0 mg i.p. every other day, end of 14 day schedule
Description: as §1, with “The suspension was centrifuged in the cold at 100 x G for 15 minutes. The suspended particles, representing newly formed mineral bone, density <2.0 g/cc were removed, washed with acetone then dried. The pelleted particles, density >2.0 g/cc were similarly washed with acetone and dried.” left out

bone tissue = assay: Histological studies of bone tissue for cytotoxicity
Description: as §2

bone calcium = conditions: humans; application Ser. No. 622,726; cited from earlier work
bone resorption = assay: Inhibition of bone resorption by gallium nitrate; conditions: direct effect
Description: as §3

total serum calcium = assay: Comparative effect of calcitonin and gallium nitrate on total serum calcium; type: in vivo; conditions: one patient; calcitonin many times over recommended dose; FIG. 1
Description: Comparative studies were performed as to the effect of Calcitonin on total serum calcium, compared to gallium nitrate in a patient with severe life-threatening hypercalcemia due to bone metastases.

## CC(O)(P(=O)(O)O)P(=O)(O)O [EHDP]
bone; Schenk et al. 1973
  bone mineralization: blocks normal bone mineralization and leads to formation of disordered and inadequately calcified bone (osteomalacia)

## O=P(O)(O)C(Cl)(Cl)P(=O)(O)O [dichloromethylenediphosphonate]
[1]
  leukemia: increased development of leukemia

## F [fluoride]
bone; Jowsey et al. 1968
  bone structure: highly abnormal (lamellar-type) bone structure which is less strong relative to normal bone

## O=[N+]([O-])[O-].O=[N+]([O-])[O-].O=[N+]([O-])[O-].[Ga+3] [gallium nitrate]
[2]
  safety of administration: safe and non-toxic
[3]; 7 injections with 5 mg gallium nitrate over 14 days
  mineral content (ash weights), treated vs control: not significantly different
[3]; bone fragments, different total doses
  site of greatest gallium uptake: metaphyseal bone
[3]; diaphyseal fragments
  bone calcium content vs nontreated: No differences in calcium content
[3]; diaphyses
  Ga content of bone: 149 ± 30 ng/mg
[3]; gallium:calcium ratio, different total doses
  gallium incorporation into bone: incorporated into bone in very low amounts
[3]; heavier density fraction >2.0 g/cc
  Ca content of density fraction: 220±31 ug Ca/mg bone
[3]; heavier density fraction >2.0 g/cc (comparator of the 'vs.')
  Ga content of density fraction: 2.9±0.4 ug Ga/mg Ca
[3]; lighter bone fraction, <2.0 g/cc (newly synthesized mineral)
  Ga content of density fraction: 3.2±0.2 ug Ga/mg Ca
[3]; lighter fraction <2.0 g/cc (comparator of the 'vs')
  Ca content of density fraction: 132±42 ug Ca/mg bone
[3]; metaphyses
  Ga content of bone: 384 ± 69 ng/mg
  bone calcium content vs nontreated: statistically significant increase in bone calcium content
Bone hydroxyapatite; all samples, scan 4° to 70° 2.phi.
  mineral phases detected: The only phase detected in all samples was hydroxyapatite
Bone hydroxyapatite; diaphyses
  BOO2 (002 line width at half maximum): 0.50 ± .03 degrees
Bone hydroxyapatite; metaphyseal particles
  B002 vs control: differed significantly
Bone hydroxyapatite; metaphyses
  BOO2 (002 line width at half maximum): 0.50 ± .03 degrees
Bone hydroxyapatite; metaphyses, region of more active bone mineralization
  hydroxyapatite crystal size/perfection: larger or more perfect crystals
Bone cell models; 3H-amino acid labeled cell homogenates
  protein banding patterns on SDS-PAGE, treated vs untreated: no differences
Bone cell models; 48 hours, up to 25 uM
  cell numbers or viability: Little change in cell numbers or viability
Bone cell models; conclusion
  action as consequence of cytotoxic effect on bone cells: not a consequence of a cytotoxic effect on bone cells
Bone turnover; 6 patients with bone turnover not elevated
  urinary OHP/Cr ratio: no significant change
Bone turnover; 8 patients with increased bone turnover (OHP/Cr > 6.0)
  urinary OHP/Cr ratio: All patients showed a decrease in OHP/Cr
Bone turnover; 8 patients with increased bone turnover (OHP/Cr > 6.0), 11 infusions
  mean reduction of urinary OHP/Cr ratio: 49±22%
Bone turnover; after each infusion in all 15 patients
  urinary 24 hour Ca2+ excretion: markedly reduced after each infusion in all 15 patients
Bone turnover; cancer patients with bone metastases
  accelerated bone loss: reduces accelerated bone loss
Bone turnover; continuous infusion 100-300 mg daily over 5-7 days, 15 patients
  mean reduction of urinary 24 hour Ca2+ excretion: 70±18%
[4]
  body weights or weight gained, treated vs nontreated: no differences
Bone tissue; histology
  cytotoxic effect at light microscopic level: no evidence of cytotoxic effect
Bone tissue; stained sections
  matrix or mineral components: no alteration in matrix or mineral components
Bone calcium
  excessive loss of bone calcium: effective in reducing excessive loss of bone calcium
Bone resorption
  bone resorption: directly inhibits bone resorption
Total serum calcium
  reduction of elevated serum calcium vs calcitonin: distinctly greater effect on reducing elevated serum calcium

## calcitonin
bone; parenteral
  rate of bone resorption: transient decrease in the rate of bone resorption
bone; repetitive injections, Gruber et al.
  bone mineral content (densimetric): increase bone mineral content
bone; tachyphylaxis
  duration of anti-resorptive effect: short-lived
